Laboratory results published in the NIST ThermoML archive (doi:10.1021/je9005344).
± gives the expanded uncertainty stated by the source.

Conditions: 298.15 K, 101.3 kPa, Liquid; for viscosity: Capillary tube (Ostwald / Ubbelohde) method; for speed of sound: Pulse-echo method; for mass density: Vibrating tube method

viscosity | speed of sound | mass density | SMILES
1.512 ± 0.013 mPa·s | 1343.5 ± 1.2 m/s | 960.978 ± 0.23 kg/m3 | COCCO [2-methoxyethan-1-ol]
11.19 ± 0.077 mPa·s | 1379.9 ± 1.2 m/s | 826.47 ± 0.23 kg/m3 | CCCCCCCCCCO [decan-1-ol]
4.439 ± 0.033 mPa·s | 1303.2 ± 1.2 m/s | 815.265 ± 0.23 kg/m3 | CCCCCCO [hexan-1-ol]
7.143 ± 0.051 mPa·s | 1347.6 ± 1.2 m/s | 821.794 ± 0.23 kg/m3 | CCCCCCCCO [octan-1-ol]
